The text below walks through data of patent publication US5677309A (priority 1996, dated 1997).

Where a name gives a salt, the structure may show the parent alone.

Assay [1] has as its target GABAa receptor (benzodiazepines (BDZ) receptor). The experiment in a line: GABAa receptor (benzodiazepine receptor) binding assay, 3H-RO15-1788 [3H-Flumazenil] displacement in rat cortical tissue. Particulars: 0.5 nM 3H-RO15-1788, 30 min at 4° C., pH 7.4.
Assay [2] concerns benzodiazepine receptor. The settings on record: Hunkeler et al., 1981; cited from earlier work.
The subject of assay [3] is benzodiazepine receptor. Particulars: in animals and humans; by itself; cited from earlier work.

As usually defined, the Ki is the equilibrium dissociation constant of an inhibitor or competing ligand from its target. A lower Ki goes with tighter binding. For the compound `O=c1[nH]c2ccccc2c2nn(-c3ccccc3)c(=S)n12` [Compound 28, 2-phenyl-5,6-dihydro-5-oxo-6[H]-1,2,4-triazolo[4,3-c]quinazolin-3-thione], the Ki in assay [1] worked out at 4.5 nM.

In assay [1], `O=c1[nH]c2ccccc2c2nn(-c3ccccn3)c(=O)n12` [Compound 5, 2-(2-Pyridyl)-5,6-dihydro-5-oxo-[6H]-1,2,4-triazolo[4,3-c]quinazolin-3-one] gave an inhibition constant Ki of 7.6 nM.

In assay [1], `CN(C)Cc1ccc(-n2nc3n(c2=O)CNc2ccccc2-3)cc1` [Compound 21, 2-[4-(N,N-dimethylaminomethyl)phenyl]-5,6-dihydro-1,2,4-triazolo-[4,3-c]quinazolin-3-one hydrochloride] yielded a Ki of 53 nM.

In turn, `S=c1n(-c2ccccc2)nc2n1CNc1ccccc1-2` [Compound 29, 2-phenyl-5,6-dihydro-1,2,4-triazolo[4,3-c]quinazolin-3-thione] yielded a Ki in assay [1] of 636 nM.

As for `O=c1n(-c2ccccc2)nc2n1CNC1=C2CCCC1` [Compound 31, 2-phenyl-5,6,7,8,9,10-hexahydro-1,2,4-triazolo[4,3-c]-quinazolin-3-one], the Ki in assay [1] came to 8 nM.

Regarding imidazo[1,5-a][1,4]benzodiazepine, in assay [2], the “inhibition of benzodiazepine and beta-carboline binding” value is “high affinity competitive inhibitor”. The intrinsic pharmacological activity entry in assay [3] is on record as “little intrinsic pharmacological activity”.

As to `O=c1[nH]c2ccccc2c2nn(-c3ccccc3)c(=O)n12` [Compound 1, 2-phenyl-5,6-dihydro-5-oxo-[6H]-1,2,4-triazolo[4,3-c]quinazolin-3-one], the Ki in assay [1] was 5.9 nM.

As to `O=c1[nH]c2c(c3nn(-c4ccccc4)c(=O)n13)CCCC2` [Compound 30, 2-phenyl-5,6-dihydro-5-oxo-[6H]-7,8,9,10-tetrahydro-1,2,4-triazolo[4,3-c]-quinazolin-3-one], in assay [1], affinity was put at a Ki of 4.5 nM.

Regarding `O=c1n(-c2ccccn2)nc2n1CNc1ccccc1-2` [Compound 13, 2-(2-Pyridyl)-5,6-dihydro-1,2,4-triazolo[4,3-c]quinazolin-3-one], the Ki in assay [1] was 63 nM.

Compound `O=c1n(-c2ccccc2)nc2n1CNc1ccccc1-2` [Compound 2, 2-phenyl-5,6-dihydro-1,2,4-triazolo[4,3-c]quinazolin-3-one] returned a Ki in assay [1] of 12 nM.
